Laboratory results: PubChem BioAssay (NCI)
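Values below derive from 48-hour exposures of cells grown in 96-well plates, with endpoints linearly interpolated between the two concentrations bracketing the appropriate inhibition level. GI50 marks 50% less growth. At the TGI there is no net growth.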

What was measured:
Assay in all cases: inhibition of tumour cell growth, NCI panel, 48 h
SK-MEL-5 melanoma = tested on: SK-MEL-5 melanoma
HT29 colon = tested on: HT29 colon
SNB-75 CNS = tested on: SNB-75 CNS
PC-3 prostate = tested on: PC-3 prostate
SF-295 CNS = tested on: SF-295 CNS
DU-145 prostate = tested on: DU-145 prostate
LOX IMVI melanoma = tested on: LOX IMVI melanoma
UACC-62 melanoma = tested on: UACC-62 melanoma
NCI-H23 lung = tested on: NCI-H23 lung
KM12 colon = tested on: KM12 colon
T-47D breast = tested on: T-47D breast
HCC-2998 colon = tested on: HCC-2998 colon
SK-MEL-2 melanoma = tested on: SK-MEL-2 melanoma
OVCAR-4 ovarian = tested on: OVCAR-4 ovarian
HCT-116 colon = tested on: HCT-116 colon
MOLT-4 leukemia = tested on: MOLT-4 leukemia
K-562 leukemia = tested on: K-562 leukemia
OVCAR-3 ovarian = tested on: OVCAR-3 ovarian
TK-10 renal = tested on: TK-10 renal
NCI-H460 lung = tested on: NCI-H460 lung
U251 CNS = tested on: U251 CNS
SK-OV-3 ovarian = tested on: SK-OV-3 ovarian
OVCAR-8 ovarian = tested on: OVCAR-8 ovarian
SW-620 colon = tested on: SW-620 colon
CAKI-1 renal = tested on: CAKI-1 renal
NCI-H226 lung = tested on: NCI-H226 lung
A498 renal = tested on: A498 renal
UACC-257 melanoma = tested on: UACC-257 melanoma
MDA-MB-435 = tested on: MDA-MB-435
SN12C renal = tested on: SN12C renal
SNB-19 CNS = tested on: SNB-19 CNS
SF-539 CNS = tested on: SF-539 CNS
MALME-3M melanoma = tested on: MALME-3M melanoma
786-0 renal = tested on: 786-0 renal
BT-549 breast = tested on: BT-549 breast
HS 578T breast = tested on: HS 578T breast
M14 melanoma = tested on: M14 melanoma
CCRF-CEM leukemia = tested on: CCRF-CEM leukemia
MCF7 breast = tested on: MCF7 breast
OVCAR-5 ovarian = tested on: OVCAR-5 ovarian
COLO 205 colon = tested on: COLO 205 colon
SR leukemia = tested on: SR leukemia
RPMI-8226 leukemia = tested on: RPMI-8226 leukemia
SK-MEL-28 melanoma = tested on: SK-MEL-28 melanoma
UO-31 renal = tested on: UO-31 renal
HCT-15 colon = tested on: HCT-15 colon
NCI-H522 lung = tested on: NCI-H522 lung
MDA-MB-231 breast = tested on: MDA-MB-231 breast
ACHN renal = tested on: ACHN renal
SF-268 CNS = tested on: SF-268 CNS
NCI/ADR-RES ovarian = tested on: NCI/ADR-RES ovarian
IGROV1 ovarian = tested on: IGROV1 ovarian
RXF 393 renal = tested on: RXF 393 renal
A549 NSCLC = tested on: A549 NSCLC
HOP-92 NSCLC = tested on: HOP-92 NSCLC
EKVX NSCLC = tested on: EKVX NSCLC
HOP-62 NSCLC = tested on: HOP-62 NSCLC
HL-60(TB) leukemia = tested on: HL-60(TB) leukemia

Work on `CC(C)[C@H](C(=O)O[C@@H]1/C=C/C(=O)O[C@@H](C)CCC/C=C/[C@@H]2C[C@H](O)C[C@H]21)N(C)C` yielded a GI50 (SK-MEL-5 melanoma) of 1.75 µM, a TGI (SK-MEL-5 melanoma) of 3.44 µM and a GI50 (HT29 colon) of 4.67 µM. The TGI (HT29 colon) was greater than 36 µM, the GI50 (SNB-75 CNS) was 5.8 µM and the TGI (SNB-75 CNS) was greater than 43.2 µM. The GI50 (PC-3 prostate) was 10.9 µM, the TGI (PC-3 prostate) was greater than 57.8 µM and the GI50 (SF-295 CNS) was 4.85 µM. For the same compound, the TGI (SF-295 CNS) was 25.1 µM, the GI50 (DU-145 prostate) was 31.5 µM and the TGI (DU-145 prostate) was greater than 100 µM. It also gave a GI50 (LOX IMVI melanoma) of 9.59 µM, a TGI (LOX IMVI melanoma) of 26.9 µM and a GI50 (UACC-62 melanoma) of 16.8 µM. The TGI (UACC-62 melanoma) was greater than 89.2 µM, the GI50 (NCI-H23 lung) was 16.8 µM and the TGI (NCI-H23 lung) was greater than 83.6 µM. The GI50 (KM12 colon) was 3.65 µM, the TGI (KM12 colon) was 11 µM and the GI50 (T-47D breast) was 31 µM. For the same compound, the TGI (T-47D breast) was greater than 100 µM, the GI50 (HCC-2998 colon) was 12.9 µM and the TGI (HCC-2998 colon) was 62.2 µM. The GI50 (SK-MEL-2 melanoma) was 17 µM, the TGI (SK-MEL-2 melanoma) was greater than 63.2 µM and the GI50 (OVCAR-4 ovarian) was 8.7 µM. It also gave a TGI (OVCAR-4 ovarian) greater than 94.5 µM, a GI50 (HCT-116 colon) of 14.5 µM and a TGI (HCT-116 colon) of 37.2 µM. The GI50 (MOLT-4 leukemia) was 14.9 µM, the TGI (MOLT-4 leukemia) was 42.2 µM and the GI50 (K-562 leukemia) was 23.7 µM. It also gave a TGI (K-562 leukemia) of 58.1 µM, a GI50 (OVCAR-3 ovarian) of 8.54 µM and a TGI (OVCAR-3 ovarian) of 37.8 µM. It also gave a GI50 (TK-10 renal) of 14.7 µM, a TGI (TK-10 renal) of 60.8 µM and a GI50 (NCI-H460 lung) of 27.7 µM. It also gave a TGI (NCI-H460 lung) of 82.5 µM, a GI50 (U251 CNS) of 20.3 µM and a TGI (U251 CNS) greater than 100 µM. The GI50 (SK-OV-3 ovarian) was 17.9 µM, the TGI (SK-OV-3 ovarian) was greater than 96.7 µM and the GI50 (OVCAR-8 ovarian) was 13.2 µM. It also gave a TGI (OVCAR-8 ovarian) greater than 68.9 µM, a GI50 (SW-620 colon) of 6.35 µM and a TGI (SW-620 colon) of 21.8 µM. For the same compound, the GI50 (CAKI-1 renal) was 19.4 µM, the TGI (CAKI-1 renal) was greater than 73.8 µM and the GI50 (NCI-H226 lung) was 11.2 µM. The TGI (NCI-H226 lung) was 44.2 µM, the GI50 (A498 renal) was 2.08 µM and the TGI (A498 renal) was 6.62 µM. The GI50 (UACC-257 melanoma) was 15.2 µM, the TGI (UACC-257 melanoma) was 71.1 µM and the GI50 (MDA-MB-435) was 5.84 µM. It also gave a TGI (MDA-MB-435) greater than 55.8 µM, a GI50 (SN12C renal) of 26.7 µM and a TGI (SN12C renal) greater than 68.7 µM. It also gave a GI50 (SNB-19 CNS) of 30.2 µM, a TGI (SNB-19 CNS) greater than 100 µM and a GI50 (SF-539 CNS) of 10.2 µM. The TGI (SF-539 CNS) was 58.9 µM, the GI50 (MALME-3M melanoma) was 6.97 µM and the TGI (MALME-3M melanoma) was 32.1 µM. It also gave a GI50 (786-0 renal) of 6.15 µM, a TGI (786-0 renal) of 21.1 µM and a GI50 (BT-549 breast) of 7.13 µM. For the same compound, the TGI (BT-549 breast) was 35.6 µM, the GI50 (HS 578T breast) was 2.2 µM and the TGI (HS 578T breast) was 45.9 µM. For the same compound, the GI50 (M14 melanoma) was 11.1 µM, the TGI (M14 melanoma) was greater than 63.8 µM and the GI50 (CCRF-CEM leukemia) was 6.05 µM. For the same compound, the TGI (CCRF-CEM leukemia) was 75 µM, the GI50 (MCF7 breast) was 6.65 µM and the TGI (MCF7 breast) was 28.1 µM. The GI50 (OVCAR-5 ovarian) was 20.4 µM, the TGI (OVCAR-5 ovarian) was greater than 89.5 µM and the GI50 (COLO 205 colon) was 3.49 µM. It also gave a TGI (COLO 205 colon) of 9.67 µM, a GI50 (SR leukemia) of 14.9 µM and a TGI (SR leukemia) of 33.8 µM. It also gave a GI50 (RPMI-8226 leukemia) of 8.12 µM, a TGI (RPMI-8226 leukemia) of 36.8 µM and a GI50 (SK-MEL-28 melanoma) of 5.01 µM. It also gave a TGI (SK-MEL-28 melanoma) of 28 µM, a GI50 (UO-31 renal) of 15 µM and a TGI (UO-31 renal) greater than 83.7 µM. It also gave a GI50 (HCT-15 colon) of 14.1 µM, a TGI (HCT-15 colon) of 34.5 µM and a GI50 (NCI-H522 lung) of 26.5 µM. The TGI (NCI-H522 lung) was greater than 68.8 µM, the GI50 (MDA-MB-231 breast) was 12.8 µM and the TGI (MDA-MB-231 breast) was 51.9 µM. The GI50 (ACHN renal) was 35.2 µM, the TGI (ACHN renal) was greater than 100 µM and the GI50 (SF-268 CNS) was 5.25 µM. It also gave a TGI (SF-268 CNS) of 41.9 µM, a GI50 (NCI/ADR-RES ovarian) of 14.9 µM and a TGI (NCI/ADR-RES ovarian) greater than 87.8 µM. The GI50 (IGROV1 ovarian) was 22.8 µM, the TGI (IGROV1 ovarian) was greater than 71.3 µM and the GI50 (RXF 393 renal) was 3.29 µM. The TGI (RXF 393 renal) was 15.6 µM, the GI50 (A549 NSCLC) was 14.6 µM and the TGI (A549 NSCLC) was greater than 94.4 µM. The GI50 (HOP-92 NSCLC) was 36.4 µM, the TGI (HOP-92 NSCLC) was 96.4 µM and the GI50 (EKVX NSCLC) was 8.45 µM. For the same compound, the TGI (EKVX NSCLC) was greater than 65.3 µM, the GI50 (HOP-62 NSCLC) was 17.2 µM and the TGI (HOP-62 NSCLC) was greater than 100 µM. It also gave a GI50 (HL-60(TB) leukemia) of 28.2 µM and a TGI (HL-60(TB) leukemia) of 50.7 µM.
